The first assay addresses T1, human RORγt (Ligand Binding Domain) (Homo sapiens, UniProt P51449).
T1 construct: purchased Crelux (Planegg, Germany) batch no PC5032-1
T1 sequence (P51449 269-508 limits assumed): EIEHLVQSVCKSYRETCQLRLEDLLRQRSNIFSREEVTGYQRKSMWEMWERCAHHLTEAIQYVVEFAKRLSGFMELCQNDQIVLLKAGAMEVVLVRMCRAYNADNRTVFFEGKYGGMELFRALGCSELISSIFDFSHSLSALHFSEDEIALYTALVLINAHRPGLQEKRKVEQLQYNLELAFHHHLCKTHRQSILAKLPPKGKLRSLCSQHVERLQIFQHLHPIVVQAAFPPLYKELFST
Briefly: Fluorescence Polarization (FP) Assay.
Conditions: not given
The protocol: The activity of the compounds was evaluated using a Fluorescence Polarization (FP) Assay and, in most cases, a Th17 Assay and/or RORγ Reporter assay (also referred to as Gal4 assay). The FP assay is an in vitro assay monitoring binding within the ligand binding pocket. The RORγ and the Th17 assays are both cell-based assays monitoring functional activity of the compound assayed.
The total volume was 25 μl, in a black Perkin Elmer OptiPlate. As negative control, 1 μl DMSO was used. […] The probe is a fluorescently labeled (TAMRA) RORγt ligand identified by Nuevolution with a total molecular weight of 910 g/mole as shown in Graph A in FIG. 1.
The molecule `Oc1cc(CNc2ncnc(N3CCCC3c3ccc(C(F)(F)F)cc3)c2F)on1` (stereo not shown) [Example 216, 5-[[[5-fluoro-6-[2-[4-(trifluoromethyl)phenyl]pyrrolidin-1-yl]pyrimidin-4-yl]amino]methyl]isoxazol-3-ol] yielded an IC50 of less than 10 µM.

The same assay, now with this note: Fluorescence Polarization (FP) Assay; values given as upper bounds of activity ranges; read-out: FP activity range.
Take `NC(=O)Cc1ccc(CNc2ncnc(N3CCCC3c3ccc4ccccc4c3)c2F)cc1` (stereo not shown) [Example 312, 2-[4-[[[5-fluoro-6-[2-(2-naphthyl)pyrrolidin-1-yl]pyrimidin-4-yl]amino]methyl]phenyl] acetamide]: the IC50 was less than 0.5 µM.

On to `CS(=O)(=O)c1ccc(CNc2ncnc(N3CCC[C@@H]3c3ccc(C(F)(F)F)cc3)c2F)cc1` [Example 219, 5-fluoro-N-[(4-methylsulfonylphenyl)methyl]-6-[(2R)-2-[4-(trifluoromethyl)phenyl]pyrrolidin-1-yl]pyrimidin-4-amine], for which the IC50 is less than 10 µM. Same read-out and setting: under `Cc1nc(C2CCCN2c2ncnc(NCc3ccc(CC(N)=O)cc3)c2F)no1` (stereo not shown) [Example 314, 2-[4-[[[5-fluoro-6-[2-(5-methyl-1,2,4-oxadiazol-3-yl)pyrrolidin-1-yl]pyrimidin-4-yl]amino]methyl]phenyl]acetamide] stands less than 10 µM. Turning to `Cc1nc(N[C@H](CC(C)(C)C)C(N)=O)c(C)c(N2CCCC2c2ccc(C(F)(F)F)cc2)n1` (stereo partly drawn) [Example 15, (2R)-2-[[2,5-dimethyl-6-[2-[4-(trifluoromethyl)phenyl]pyrrolidin-1-yl]pyrimidin-4-yl]amino]-4,4-dimethyl-pentanamide], the IC50 is less than 10 µM. Same read-out and setting: under `[O-][n+]1ccc(CNc2ncnc(N3CCC[C@@H]3c3ccc(C(F)(F)F)cc3)c2F)cc1` [Example 194, 5-fluoro-N-[(1-oxidopyridin-1-ium-4-yl)methyl]-6-[(2R)-2-[4-(trifluoromethyl)phenyl]pyrrolidin-1-yl]pyrimidin-4-amine] stands less than 2 µM. The same measure, in the same setting: the value for `CC(C)(CCS(C)(=O)=O)CNc1ncnc(N2CCOC[C@@H]2c2ccc(C(F)(F)F)cc2)c1F` [Example 294, N-(2,2-dimethyl-4-methylsulfonyl-butyl)-5-fluoro-6-[(3S)-3-[4-(trifluoromethyl)phenyl]morpholin-4-yl]pyrimidin-4-amine] was less than 10 µM.

Regarding `CS(=O)(=O)N1CCOC(CNc2ncnc(N3CCOC[C@@H]3c3ccc(C(F)(F)F)cc3)c2F)C1` (stereo partly drawn) [Example 309, 5-fluoro-N-[(4-methylsulfonylmorpholin-2-yl)methyl]-6-[(3S)-3-[4-(trifluoromethyl)phenyl]morpholin-4-yl]pyrimidin-4-amine], the IC50 was less than 2 µM. Still for that read-out and setting: the value for `[O-][n+]1cccc(CNc2ncnc(N3CCC[C@@H]3c3ccc(C(F)(F)F)cc3)c2F)c1` [Example 193, 5-fluoro-N-[(1-oxidopyridin-1-ium-3-yl)methyl]-6-[(2R)-2[4-(trifluoromethyl)phenyl]pyrrolidin-1-yl]pyrimidin-4-amine] was less than 10 µM; that for `CC1(C)NC(=O)N(Cc2ccc(CNc3ncnc(N4CCCC4c4ccc(C(F)(F)F)cc4)c3F)cc2)C1=O` (stereo not shown) [Example 45, 3-[[4-[[[5-fluoro-6-[2-[4-(trifluoromethyl)phenyl]pyrrolidin-1-yl]pyrimidin-4-yl]amino]methyl]phenyl]methyl]-5,5-dimethyl-imidazolidine-2,4-dione] was less than 10 µM; that for `CS(=O)(=O)NC1CCCC1CNc1ncnc(N2CCOC[C@@H]2c2ccc(C(F)(F)F)cc2)c1F` (stereo partly drawn) [Example 251, N-[2-[[[5-fluoro-6-[(3S)-3-[4-(trifluoromethyl)phenyl]morpholin-4-yl]pyrimidin-4-yl]amino]methyl]cyclopentyl] methanesulfonamide] was less than 10 µM. The same measure, in the same setting: the value for `COc1cc(CNc2ncnc(N3CCCC3c3ccc(C(F)(F)F)cc3)c2F)cc(OC)c1` (stereo not shown) [Example 142, N-[(3,5-dimethoxyphenyl)methyl]-5-fluoro-6-[2-[4-(trifluoromethyl)phenyl]pyrrolidin-1-yl]pyrimidin-4-amine] was less than 2 µM. Take `CS(=O)(=O)NC1CCN(c2ncnc(N3CCOC[C@@H]3c3ccc(C(F)(F)F)cc3)c2F)CC1` [Example 297, N-[1-[5-fluoro-6-[(3 S)-3-[4-(trifluoromethyl)phenyl]morpholin-4-yl]pyrimidin-4-yl]-4-piperidyl]methanesulfonamide]: the IC50 was less than 10 µM. Turning to `O=C1Cc2cc(CNc3ncnc(N4CCCC4c4ccc(C(F)(F)F)cc4)c3F)ccc2N1` (stereo not shown) [Example 122, 5-[[[5-fluoro-6-[2-[4-(trifluoromethyl)phenyl]pyrrolidin-1-yl]pyrimidin-4-yl]amino]methyl]indolin-2-one], the IC50 is less than 10 µM. For the molecule `Fc1c(NCc2ccc(C(F)(F)F)cc2)ncnc1N1CCCC1c1ccc(C(F)(F)F)cc1` (stereo not shown) [Example 48, 5-fluoro-N-[[4-(trifluoromethyl)phenyl]methyl]-6-[2-[4-(trifluoromethyl)phenyl]pyrrolidin-1-yl]pyrimidin-4-amine], the IC50 was less than 2 µM. As to `CS(=O)(=O)c1ccc(Cn2ccc3c(N4CCOC[C@@H]4c4ccc(OC(F)(F)F)cc4)ncnc32)nc1` [Example 330, (3S)-4-[7-[(5-methylsulfonyl-2-pyridyl)methyl]pyrrolo[2,3-d]pyrimidin-4-yl]-3-[4-(trifluoromethoxy)phenyl] morpholine], the IC50 was less than 2 µM. Still for that read-out and setting: under `CC(C)(C)CC(Nc1ncnc(N2CCCC2c2ccc3c(c2)OCCO3)c1F)C(N)=O` (stereo in doubt) [Example 24, (2R)-2-[[6-[2-(2,3-dihydro-1,4-benzodioxin-6-yl)pyrrolidin-1-yl]-5-fluoro-pyrimidin-4-yl]amino]-4,4-dimethyl-pentanamide] stands less than 0.5 µM; under `NC(=O)C1CCCN(c2ccc(CNc3ncnc(N4CCCC4c4ccc(C(F)(F)F)cc4)c3F)cc2)C1` (stereo not shown) [Example 61, 1-[4-[[[5-fluoro-6-[2-[4-(trifluoromethyl)phenyl]pyrrolidin-1-yl]pyrimidin-4-yl]amino]methyl]phenyl]piperidine-3-carboxamide], less than 10 µM; under `Fc1c(NCC2CCOC2)ncnc1N1CCC[C@@H]1c1ccc(C(F)(F)F)cc1` (stereo partly drawn) [Example 154, 5-fluoro-N-(tetrahydrofuran-3-ylmethyl)-6-[(2R)-2-[4-(trifluoromethyl)phenyl]pyrrolidin-1-yl]pyrimidin-4-amine], less than 0.5 µM.

On to `COC(=O)Cc1ccc(CNc2ncnc(N3CCCC3c3ccc(C(F)(F)F)cc3)c2F)cc1` (stereo not shown) [Example 70, methyl 2-[4-[[[5-fluoro-6-[2-[4-(trifluoromethyl)phenyl]pyrrolidin-1-yl]pyrimidin-4-yl]amino]methyl]phenyl]acetate], for which the IC50 was less than 2 µM. Still for that read-out and setting: the value for `CN(C)C(=O)C1(CNc2ncnc(N3CCOC[C@@H]3c3ccc(C(F)(F)F)cc3)c2F)CCCC1` [Example 250, 1-[[[5-fluoro-6-[(3S)-3-[4-(trifluoromethyl)phenyl]morpholin-4-yl]pyrimidin-4-yl]amino]methyl]-N,N-dimethyl-cyclopentanecarboxamide] was less than 10 µM; that for `CCC(Nc1ncnc(N2CCCC2c2ccc(C(F)(F)F)cc2)c1F)c1ccc2c(c1)OCCCO2` (stereo not shown) [Example 55, N-[1-(3,4-dihydro-2H-1,5-benzodioxepin-7-yl)propyl]-5-fluoro-6-[2-[4-(trifluoromethyl)phenyl]pyrrolidin-1-yl]pyrimidin-4-amine] was less than 10 µM; that for `CC(C)C[C@@H](Nc1ncnc(N2CC(C)CC2c2ccc(C(F)(F)F)cc2)c1F)C(N)=O` (stereo partly drawn) [Example 34, (2R)-2-[[5-fluoro-6-[4-methyl-2-[4-(trifluoromethyl)phenyl]pyrrolidin-1-yl]pyrimidin-4-yl]amino]-4-methyl-pentanamide] was less than 1 µM. The same measure, in the same setting: under `Fc1c(NCc2cccc(Cn3cncn3)c2)ncnc1N1CCCC1c1ccc(C(F)(F)F)cc1` (stereo not shown) [Example 146, 5-fluoro-N-[[3-(1,2,4-triazol-1-ylmethyl)phenyl]methyl]-6-[2-[4-(trifluoromethyl)phenyl]pyrrolidin-1-yl]pyrimidin-4-amine] stands less than 2 µM; under `COCc1cccc(CNc2ncnc(N3CCCC3c3ccc(C(F)(F)F)cc3)c2F)c1` (stereo not shown) [Example 147, 5-fluoro-N-[[3-(methoxymethyl)phenyl]methyl]-6-[2-[4-(trifluoromethyl)phenyl]pyrrolidin-1-yl]pyrimidin-4-amine], less than 2 µM. On the same count and under the same terms, the value for `NS(=O)(=O)Cc1ccc(CNc2ncnc(N3CCCC3c3ccc(C(F)(F)F)cc3)c2F)cc1` (stereo not shown) [Example 46, [4-[[[5-fluoro-6-[2-[4-(trifluoromethyl)phenyl]pyrrolidin-1-yl]pyrimidin-4-yl]amino]methyl]phenyl]methane-sulfonamide] was less than 1 µM; that for `Cc1nnc(C2CCCN2c2ncnc(NCc3ccc(CC(N)=O)cc3)c2F)o1` (stereo not shown) [Example 315, 2-[4-[[[5-fluoro-6-[2-(5-methyl-1,3,4-oxadiazol-2-yl)pyrrolidin-1-yl]pyrimidin-4-yl]amino]methyl]phenyl]acetamide] was less than 10 µM.

For `CN(C)C(=O)c1cccc(CNc2ncnc(N3CCCC3c3ccc(C(F)(F)F)cc3)c2F)c1` (stereo not shown) [Example 145, 3-[[[5-fluoro-6-[2-[4-(trifluoromethyl)phenyl]pyrrolidin-1-yl]pyrimidin-4-yl]amino]methyl]-N,N-dimethyl-benzamide], the IC50 is less than 10 µM.
